The results in this text go back to US20080214619A1, “Business method to treat and/or prevent a gastric acid disorder with a proton pump inhibitor (PPI) and a cholinergic agonist to induce rapid onset of PPI action with or without food” (priority 2006, published 2008).

The assay deals with acid secretion. Put plainly: Animal study, PPI + cholinergic stimulation: gastric acid output by titration of 30-min gastric collections in fasted, anesthetized, pylorus-ligated rats. The class given is in vivo. Here is the method: Rats are fasted overnight.
Rats are anesthetized and small laparotomy and gastrotomy are performed.
Tygon tubing placed through gastrotomy and into proximal duodenum; pylorus ligated
Tubing is placed through a small gastrotomy into the most dependent portion of the stomach; esophagogastric junction is ligated carefully to avoid vagal damage and to prevent aspiration
Gastrotomy and abdomen is closed around tubing
Stomach is gently rinsed with about 0.9% NaCl at about pH 7.
Gastric contents are collected by gravity for about 30 min, at which time is rinsed with about 5 ml of NaCl and collected; 30-min contents is titrated with about […] using radiometer automatic titrator to determine basal acid output (“BAO”)
Rats (3 per group) are randomized to 1 of 3 treatments: • A. Control—intraduodenal (ID) HCO3; • B. Carbachol about 15 μg/kg IP+ID HCO3; and • C. ID omeprazole (about 20 mg/kg) is dissolved in HCO3+carbachol about 15 μg/kg IP
Gastric contents are collected by gravity for about 30 min, at which time stomachs are rinsed with about 5 ml of NaCl and collected; contents are titrated with 0.01 M NaOH using a Radiometer pH meter; about 30-min collection is repeated ×6.

Consider `C[N+](C)(C)CCOC(N)=O` [carbachol], for which the “effect on acid secretion” value (carbachol about 15 μg/kg IP + ID HCO3, 3 per group) is reported as “rapidly stimulates acid secretion”. For the setting “carbachol about 15 μg/kg IP + ID HCO3, gradually diminishes thereafter”, the “time at which acid secretion reaches a maximum level following administration” value is reported as “about 90 min”.
